pIC50: −log10 of the molar value.
Target: T1, Prolyl endopeptidase (Homo sapiens, UniProt P48147)
T1 sequence (P48147 whole entry): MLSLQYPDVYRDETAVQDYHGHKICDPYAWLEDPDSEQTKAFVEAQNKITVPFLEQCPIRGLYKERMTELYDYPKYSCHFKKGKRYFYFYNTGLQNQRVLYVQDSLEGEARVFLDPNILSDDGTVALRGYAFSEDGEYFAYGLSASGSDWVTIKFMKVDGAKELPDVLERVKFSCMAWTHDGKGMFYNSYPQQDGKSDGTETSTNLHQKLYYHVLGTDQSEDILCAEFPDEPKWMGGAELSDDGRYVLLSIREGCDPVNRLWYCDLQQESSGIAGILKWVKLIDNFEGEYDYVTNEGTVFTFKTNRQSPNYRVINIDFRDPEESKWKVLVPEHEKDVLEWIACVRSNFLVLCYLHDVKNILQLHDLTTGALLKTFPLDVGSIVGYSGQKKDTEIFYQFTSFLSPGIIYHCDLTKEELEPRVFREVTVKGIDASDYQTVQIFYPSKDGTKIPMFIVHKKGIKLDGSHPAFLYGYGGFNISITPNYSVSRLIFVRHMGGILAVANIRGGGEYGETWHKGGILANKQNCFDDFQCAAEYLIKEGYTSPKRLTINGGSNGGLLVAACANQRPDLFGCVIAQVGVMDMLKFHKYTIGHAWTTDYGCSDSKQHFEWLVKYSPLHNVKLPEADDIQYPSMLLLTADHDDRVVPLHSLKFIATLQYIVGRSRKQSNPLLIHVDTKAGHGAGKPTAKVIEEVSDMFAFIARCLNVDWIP
Test: Compound was evaluated for the inhibition of prolyl endopeptidase (PEP) purified from human peripheral blood mononuclear cells

pIC50 | SMILES
5.59 | COC(OC)C1CSCN1C(=O)C1CSCN1C(=O)OCc1ccccc1 (configuration not stated)
5.19 | COCC1COC(C2CCCN2C(=O)C2CCCN2C(=O)OCc2ccccc2)O1 (configuration not stated)

— ChEMBL document CHEMBL1150034, “Synthesis of peptidyl acetals as inhibitors of prolyl endopeptidase” (Bioorg Med Chem Lett, 1995)
